Like-named read-outs stand apart in the source and are kept apart here.
Legend:
[1] = tested on: murine melanoma cell line Clone M3; assay: In vitro proliferation of murine melanoma cell line Clone M3
RAR-α [2] = target: T1, RAR-α (Homo sapiens, UniProt P10276); assay: Binding studies, RAR-alpha; parameters: made in house; host or cells: bacteria (PET-8c vector)
T1 sequence (P10276 1-462): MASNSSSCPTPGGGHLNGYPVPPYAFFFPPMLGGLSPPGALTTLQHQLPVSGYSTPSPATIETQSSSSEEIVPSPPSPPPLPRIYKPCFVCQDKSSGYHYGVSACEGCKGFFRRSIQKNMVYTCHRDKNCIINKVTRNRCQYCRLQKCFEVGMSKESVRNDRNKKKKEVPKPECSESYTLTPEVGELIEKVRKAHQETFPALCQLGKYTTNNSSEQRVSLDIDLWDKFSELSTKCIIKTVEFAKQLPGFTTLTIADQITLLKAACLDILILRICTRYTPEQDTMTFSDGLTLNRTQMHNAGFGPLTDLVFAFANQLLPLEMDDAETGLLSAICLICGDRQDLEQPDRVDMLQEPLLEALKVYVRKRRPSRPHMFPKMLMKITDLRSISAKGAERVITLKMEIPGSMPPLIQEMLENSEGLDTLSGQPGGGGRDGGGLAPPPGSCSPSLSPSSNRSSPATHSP

F9 cells [3] = assay: F9 cell differentiation, cellular morphology; type: cell-based, mouse
Description: Retinoids are known to differentiate mouse teratocarcinoma cells (F9). Differentiation of F9 cells is specifically associated with irreversible changes in morphology and induction of the biochemical marker alkaline phosphatase (ALP) and tissue plasminogen activator (tPA) (Biochem. J. Vol. 274:673–678).

[4] = tested on: human primary metastatic melanoma cell line c81–46c; assay: In vitro proliferation of human melanoma cell line c81–46c; type: cell-based
RAR-α [5] = target: T1, RAR-α; assay: Cotransfection assay in CV-1 cells, RAR-alpha; type: cell-based; parameters: expressed in transfected cells; host or cells: CV-1 (monkey kidney); conditions: for EC50: Table 4
RXR-γ = target: T2, RXR-γ (Mus musculus, UniProt P28705); assay: Cotransfection assay in CV-1 cells, RXR-gamma; type: cell-based; conditions: Table 4; read-out: Potency
T2 construct: expressed in transfected cells; host or cells: CV-1 (monkey kidney)
T2 sequence (P28705 1-463): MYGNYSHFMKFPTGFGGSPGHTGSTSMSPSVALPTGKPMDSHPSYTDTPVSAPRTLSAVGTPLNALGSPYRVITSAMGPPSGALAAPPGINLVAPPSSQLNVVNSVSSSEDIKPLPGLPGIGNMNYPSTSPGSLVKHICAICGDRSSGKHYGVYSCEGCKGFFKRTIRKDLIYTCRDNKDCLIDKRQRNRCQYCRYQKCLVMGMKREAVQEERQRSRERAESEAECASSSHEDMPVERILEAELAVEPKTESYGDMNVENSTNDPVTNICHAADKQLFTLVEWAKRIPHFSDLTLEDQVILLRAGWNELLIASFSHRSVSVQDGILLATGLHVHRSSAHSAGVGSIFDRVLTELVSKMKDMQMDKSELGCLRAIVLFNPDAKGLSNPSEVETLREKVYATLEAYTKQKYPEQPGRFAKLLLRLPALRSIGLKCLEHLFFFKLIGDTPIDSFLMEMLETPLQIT

RXR-β = target: T3, RXR-β (Mus musculus, UniProt P28704); assay: Cotransfection assay in CV-1 cells, RXR-beta; type: cell-based; conditions: Table 4; read-out: Potency
T3 construct: expressed in transfected cells; host or cells: CV-1 (monkey kidney)
T3 sequence (P28704 1-520): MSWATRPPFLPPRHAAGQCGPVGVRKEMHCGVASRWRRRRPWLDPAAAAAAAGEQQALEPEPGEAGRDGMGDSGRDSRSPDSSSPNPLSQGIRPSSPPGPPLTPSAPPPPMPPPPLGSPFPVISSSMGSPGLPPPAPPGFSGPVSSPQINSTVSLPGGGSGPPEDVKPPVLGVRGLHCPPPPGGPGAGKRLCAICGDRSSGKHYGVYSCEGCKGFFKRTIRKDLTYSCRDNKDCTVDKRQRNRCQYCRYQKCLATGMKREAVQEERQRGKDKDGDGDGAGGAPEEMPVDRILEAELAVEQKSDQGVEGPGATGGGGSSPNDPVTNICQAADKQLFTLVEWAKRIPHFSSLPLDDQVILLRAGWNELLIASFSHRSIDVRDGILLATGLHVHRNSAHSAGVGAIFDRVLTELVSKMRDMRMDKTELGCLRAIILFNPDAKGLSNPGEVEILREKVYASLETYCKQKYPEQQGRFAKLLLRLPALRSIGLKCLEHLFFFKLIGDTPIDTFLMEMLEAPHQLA

RXR-α = target: T4, RXR-α (Homo sapiens, UniProt P19793); assay: Cotransfection assay in CV-1 cells, RXR-alpha; type: cell-based; conditions: Table 4; for EC50: read-out: Potency
T4 construct: expressed in transfected cells; host or cells: CV-1 (monkey kidney)
T4 sequence (P19793 1-462): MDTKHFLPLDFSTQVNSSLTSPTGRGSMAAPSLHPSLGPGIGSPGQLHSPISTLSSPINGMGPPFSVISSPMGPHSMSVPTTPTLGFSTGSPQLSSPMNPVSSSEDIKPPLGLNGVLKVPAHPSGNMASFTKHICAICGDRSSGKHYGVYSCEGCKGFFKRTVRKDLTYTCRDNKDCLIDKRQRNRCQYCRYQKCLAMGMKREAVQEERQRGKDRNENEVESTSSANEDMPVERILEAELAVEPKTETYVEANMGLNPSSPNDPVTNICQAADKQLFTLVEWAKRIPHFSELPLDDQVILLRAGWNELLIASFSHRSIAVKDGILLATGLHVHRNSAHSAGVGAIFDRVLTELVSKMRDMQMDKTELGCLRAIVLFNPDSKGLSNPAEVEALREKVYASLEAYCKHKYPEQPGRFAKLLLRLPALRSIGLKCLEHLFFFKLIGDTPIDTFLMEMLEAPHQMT

RAR-β = target: T5, RAR-β (Homo sapiens, UniProt P10826); assay: Cotransfection assay in CV-1 cells, RAR-beta; type: cell-based
T5 construct: expressed in transfected cells; host or cells: CV-1 (monkey kidney)
T5 sequence (P10826 1-448 isoform P10826-2): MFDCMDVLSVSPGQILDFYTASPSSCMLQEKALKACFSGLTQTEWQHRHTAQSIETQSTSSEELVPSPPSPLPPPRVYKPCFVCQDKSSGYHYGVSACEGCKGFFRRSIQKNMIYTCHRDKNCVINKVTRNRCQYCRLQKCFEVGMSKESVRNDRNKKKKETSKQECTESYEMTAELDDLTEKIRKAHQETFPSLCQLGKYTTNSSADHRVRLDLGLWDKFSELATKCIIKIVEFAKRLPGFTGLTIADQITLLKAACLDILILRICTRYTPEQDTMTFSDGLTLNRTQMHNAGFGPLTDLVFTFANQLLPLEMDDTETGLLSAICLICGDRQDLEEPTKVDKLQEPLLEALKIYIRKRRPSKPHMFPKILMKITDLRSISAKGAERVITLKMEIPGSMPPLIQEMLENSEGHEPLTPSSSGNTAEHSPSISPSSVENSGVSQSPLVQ

RAR-γ = target: T6, RAR-γ (Homo sapiens, UniProt P13631); assay: Cotransfection assay in CV-1 cells, RAR-gamma; type: cell-based
T6 construct: expressed in transfected cells; host or cells: CV-1 (monkey kidney)
T6 sequence (P13631 1-454): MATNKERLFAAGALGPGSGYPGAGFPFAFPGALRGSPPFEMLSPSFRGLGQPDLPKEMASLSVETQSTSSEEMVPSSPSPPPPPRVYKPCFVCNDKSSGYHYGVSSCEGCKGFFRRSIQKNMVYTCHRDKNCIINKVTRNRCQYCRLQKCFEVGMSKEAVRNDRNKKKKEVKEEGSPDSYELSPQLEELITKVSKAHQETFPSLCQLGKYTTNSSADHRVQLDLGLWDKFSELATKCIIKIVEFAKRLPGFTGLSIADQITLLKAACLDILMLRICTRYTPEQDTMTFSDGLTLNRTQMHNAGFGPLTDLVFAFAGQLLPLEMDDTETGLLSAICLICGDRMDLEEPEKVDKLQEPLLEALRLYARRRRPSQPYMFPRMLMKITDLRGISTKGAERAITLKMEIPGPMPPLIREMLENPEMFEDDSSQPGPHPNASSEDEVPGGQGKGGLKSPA

F9 cells [6] = assay: F9 cell differentiation, induction of alkaline phosphatase; type: cell-based, mouse; conditions: maximal responses similar
Rhino mouse = assay: Topical application, horn-filled utriculus size in the Rhino mouse; type: in vivo; conditions: 14 days
F9 cells [7] = assay: F9 cell differentiation, tissue plasminogen activator activity; type: cell-based, mouse; conditions: concentration of 1 μM

CC1=C(/C=C/C(C)=C\C=C\C(C)=C\C(=O)O)C(C)(C)CCC1 [9-cis-retinoic acid] was tested, and the “% Growth inhibition” value ([1]; Conc added 0.01 μM) was −49%, the “% Growth inhibition” value ([1]; Conc added 1 μM) was −85% and the “binding to RAR-alpha” value (RAR-α [2]) was “high affinity ligand”. The “differentiation of F9 cells, irreversible changes in cellular morphology” value (F9 cells [3]) was “induced differentiation of F9 cells into partial endoderm-like cells”, the “% Growth inhibition” value ([4]; Conc added 0.01 μM) was −28% and the “% Growth inhibition” value ([4]; Conc added 1 μM) was −45%. The “potency as an activator of RAR-alpha compared with all-trans-retinoic acid” value (RAR-α [5]; FIG. 3C) was “equipotent”.

In the case of CC1=C(/C=C/C(C)=C\C=C\C(C)=C\C(=O)O)C(C)(C)CCC1=O [4-keto-9-cis-retinoic acid], the EC50 (RXR-γ) is reported as 1100 nM, the EC50 (RXR-β) is reported as 1300 nM and the EC50 (RXR-α) is reported as 520 nM.

With CC1=C(/C=C/C(=C\C=C\C(C)=C\C(=O)O)c2ccccc2)C(C)(C)CCC1 [9-phenyl-9-cis-retinoic acid] the EC50 (RAR-β; Table 4, read-out: Potency) was 880 nM, the EC50 (RAR-γ; Table 4, read-out: Potency) was 250 nM and the EC50 (RXR-γ) was 290 nM. It also gave an EC50 (RXR-β) of 44 nM, an EC50 (RXR-α) of 210 nM and an EC50 (RAR-α [5]; read-out: Potency) of over 10000 nM.

In the case of CC1=C(/C=C/C(C)=C/C=C/C(C)=C/C(=O)O)C(C)(C)CCC1 [all-trans-retinoic acid], the “times more potent than 9-cis-retinoic acid in inducing ALP” value (F9 cells [6]) is reported as 40 times, the “Pilosebaceous structure size (% red′n)” value (Rhino mouse; 0.01% topical) is reported as “(−75%)” and the “Pilosebaceous structure size (% red′n)” value (Rhino mouse; 0.1% topical) is reported as “(−78%)”. The Pilosebaceous structure size (Rhino mouse; 0.1% topical, vehicle control 178 μm) was 44 μm, the “increased cellular activities of tPA” value (F9 cells [7]) was 0.80±0.08 and the “differentiation of F9 cells, irreversible changes in cellular morphology” value (F9 cells [3]) was “induced differentiation of F9 cells into partial endoderm-like cells”.

In the case of CC1=C(/C=C/C(C)=C\C=C\C(C)=C\C(=O)O)C(C)(C)CCC1O (stereo not drawn) [4-hydroxy-9-cis-retinoic acid], the EC50 (RAR-β) is reported as 160 nM, the Efficacy (RAR-β) is reported as 71% and the EC50 (RAR-γ) is reported as 180 nM. The Efficacy (RAR-γ) was 81%, the EC50 (RXR-γ) was 1700 nM and the EC50 (RXR-β) was 650 nM. The Efficacy (RXR-α; maximal response relative to retinoic acid at 10^−5 M) was 161%, the EC50 (RXR-α) was 1700 nM and the EC50 (RAR-α [5]; Potency) was 380 nM.

— patent US7056954B2, “Means for the modulation of processes mediated by retinoid receptors and compounds useful therefor” (The Salk Institute for Biological Studies, priority 1991, dated 2006)
